In patent US10077433B2, “Permuted and nonpermuted luciferase biosensors” (PROMEGA CORPORATION, priority 2006, dated 2018):

Columns and labels:
[1] = tested on: intracellular cAMP concentration, HEK 293 cells; assay: Intracellular cAMP changes in HEK 293 cells transiently transfected with CPM-FF Luc/RIIβB (pBFB141); type: cell-based; conditions: HEK 293 cells, pBFB141; 10 μM isopreterenol or 50 mM forskolin (so in the source), treatment alone, room temperature
Description: Cells were cultured in 60 ml in DMEM/F12 with HEPES buffer (Invitrogen) with 10% FBS at 37° C. with 5% CO2.
The ORF encoding the CPM-FF Luc/RIIβB based cAMP biosensor with X/Y linker lengths of (X=10, Y=0) was transferred to Flexi vector pF4K (Flexi vector system; Promega Corp.). The resultant plasmid construct (pBFB141) utilizes an upstream CMV promoter for expression of the associated cAMP biosensor in mammalian cells.
Cells were transfected with TransIt®-LT1 Reagent (MIRUS) using 0.3 μl TransIt®-LT1 reagent and 0.15 μg DNA per well of a 96 well plate. Cells were allowed to grow overnight and were assayed the next day.
Approximately 1 day after transfection, cells were removed from the incubator and equilibrated to room temperature. A 5 μl aliquot of 100 mM Luciferin EF was added to a total of 90 μl of cell culture plus transfection reagent to give a final concentration of approximately 5 mM luciferin. Cells were then incubated at room temperature for at least 90 minutes. After 90 minutes at room temperature, baseline measurements of luminescence were measured using a 96 well Veritas Luminometer (Turner Biosystems; integration time of 0.5 seconds per well). Cells were then induced with 10 μM isopreterenol (CalBiochem), 50 mM forskolin (Sigma) or not induced (0.1% DMSO, Sigma) and luminescence was measured continuously for about 30 minutes. After 30 minutes, […] (Sigma) was added to cells with isopreterenol and 0.1% DMSO was added to all other samples. Luminescence was then measured continuously for the next 30 minutes. A final addition of 50 μM forskolin was added to the isopreterenol/propranolol sample and 0.1% DMSO was added to all other samples. Luminescence was then measured continuously for the next half hour. Samples were measured in sets of 12 replicates. 10× stocks of isopreterenol, propranolol, forskolin and DMSO were made in 1×PBS (Invitrogen).

[2] = tested on: intracellular cAMP, HEK-293 cells; assay: Forskolin titration in HEK-293 cells transfected with CPM-hRL/RIIβB biosensor (201325.78.E5); type: cell-based
Description: 100 μl HEK-293 cells were plated in a 96 well plate and grown to 70-90% confluency in DMEM/F12 with HEPES buffer (Invitrogen) with 10% FBS at 37° C. with 5% CO2.
Cells were transfected with TransIt®-LT1 Reagent (MIRUS) using 0.3 μl TransIt®-LT1 reagent and 0.15 μg DNA (CPM-hRL/RIIβB cAMP biosensor with X/Y peptide linker lengths of (X=4, Y=20) (201325.78.E5)) per well of a 96-well plate. Cells were allowed to grow overnight and were assayed the next day.
Approximately 1 day after transfection, cells were removed from incubator and equilibrated to room temperature. A 10 μl aliquot of 600 μM EnduRen Live Cell Substrate (Promega) was added to a total of 100 μl of cell culture to give a final concentration of approximately 60 μM coelentrazine. Cells were then incubated at room temperature for at least 15 minutes. After 15 minutes at room temperature, baseline measurements of luminescence were measured using a 96-well Veritas Luminometer (Turner) at 0.5 seconds per well. Cells were then induced with 0.025 μM-250 μM forskolin (Sigma) or not induced (0.1% DMSO (Sigma)) and luminescence was measured continuously for about 30 minutes (FIG. 19). Samples were measured in sets of 5 replicates per concentration of forskolin. EC50s were calculated using GraphPad Prism for Windows, Version 4.

[3] = tested on: intracellular cAMP, HEK293 cells; assay: HEK293 cells stably expressing CP234-Luc/RIIB, forskolin stimulation and Z′ measurement; type: cell-based
Description: The ORF from pBFB135, under the class of biosensors called “CPM-FF Luc/RIIβB,” was used to generate the transient and stable cells lines described below. These cell lines are called “CP234-Luc/RIIB,” “cAMP LucSensor,” “LucSensor,” and “FF cAMP Sensor.”
HEK293 cells stably expressing CP234-Luc/RIIB (ORF derived from pBFB135) were resuspended in complete media and mixed with 5 mM luciferin-EF. Cells were plated at 1×10^5 cells per well in a 96 well plate and equilibrated to room temperature for 1.5 hours. After stimulation with forskolin, luminescence was measured at 15 minutes using a GloMax™ Luminometer.
For a Z′ measurement, 2×10^4 cells were aliquoted per well to a 384-well plate and equilibrated using a similar protocol. Half the plate was induced with […], whereas the other half remained uninduced. Luminescence was captured 15 minutes after induction using a TECAN GENios Pro™ luminometer. The fold of induction was 6.1 and Z′ was 0.83. Since assays with Z′ greater than 0.5 are considered good quality for high-throughput screening (HTS), the cAMP biosensor-based assay is amenable for HTS.

[4] = tested on: intracellular cAMP concentration, HEK 293 cells; assay: Intracellular cAMP changes in HEK293 cells with CPM-hRL Luc/RIIβB biosensors (isopreterenol, propranolol, forskolin); type: cell-based
Description: Cells were cultured in 2 mL DMEM/F12 with HEPES buffer (Invitrogen) and 10% FBS at 37° C. with 5% CO2 in a 6 well plate. Three of the constructs described in Example XVII were used to detect intracellular changes of cAMP concentrations. The constructs used were: pBFB277, pBFB279 and pBFB287. HEK293 cells stably expressing CPM91-hRL/RIIβB (ORF derived from 201325.44.H6 were also used in these experiments. HEK293 cells were transfected with TransIt®-LT1 Reagent (MIRUS) using 6 μL TransIt®-LT1 reagent and 2 μg DNA (pBFB277, pBFB279 and pBFB287) per well of a 6 well plate. Cells were allowed to grow overnight and were assayed the next day. Approximately 1 day after transfection, cells were trypsinized, resuspended in fresh DMEM/F12 with HEPES buffer (Invitrogen) with 1% FBS and plated in a 96 well plate at approximately 10,000 cells per well. Alternatively, a HEK293 cell line stably expressing CP91-hRL/RIIβB was plated in a 96 well plate at approximately 10,000 cells per well. A 10 μL aliquot of 600 μM EnduRen was added to a total of 100 μL of cell culture to give a final concentration of approximately […]. Cells were then incubated at 37° C. with 5% CO2. After 5 hours, the plate was removed from the incubator and allowed to cool to room temperature for at least 20 minutes. After 20 minutes, baseline measurements of luminescence were measured using a 96 well Veritas Luminometer (Turner Biosystems; integration time of 0.5 seconds per well). Cells were then induced with 10 μM isopreterenol (CalBiochem), 50 μM forskolin (Sigma) or not induced (0.1% DMSO, Sigma) and luminescence was measured continuously for about 30 minutes. After 30 minutes, 10 μM propranolol (Sigma) was added to cells already induced with isopreterenol and 0.1% DMSO was added to all other samples. Luminescence was then measured continuously for the next 30 minutes. A final addition of 50 μM forskolin was added to the isopreterenol/propranolol sample and 0.1% DMSO was added to all other samples. Luminescence was then measured continuously for the next half hour. Samples were measured in sets of 4-6 replicates. 10× stocks of isopreterenol, propranolol, forskolin and DMSO were made in DMEM/F12 with HEPES buffer (Invitrogen) and 1% FBS.

[5] = CPM-FF Luc calcium biosensors, 10 mM CaCl2 or 10 mM EDTA plus 2.5 mM EGTA; type: biochemical; conditions: 10 mM CaCl2 vs 10 mM EDTA plus 2.5 mM EGTA
Description: Calcium biosensors were prepared by fusing sequences encoding a circularly permuted firefly luciferase having engineered N- and C-termini at residues 234 and 233, respectively, to sequences encoding protein domains that bind calcium. One type of calcium biosensor utilized a mutant of fast chicken skeletal muscle troponin C (TnC) (amino acids 15-163; N109D, D111N, N145D, D147N; Genbank NM_205450) [Met-(Luc2.0 234-544)-(Linker X)-(TnC)-(Linker Y)-(Luc2.0 4-233)-Val], and the second type of calcium biosensor utilized human calmodulin (CaM) (amino acids 5-148; Genbank BC005137) [Met-Luc+ (234-544)-(Linker X)-human Calmodulin (5-148)-(Linker Y)-Luc+ (4-233)].
CPM-FF Luc/TnC and CPM-FF Luc/CaM constructs with varying X/Y peptide linker lengths were expressed in vitro using the T7 Coupled Reticulocyte Lysate System (pBFB225, pBFB226, pBFB227, pBFB7; FIG. 24). Reactions were then supplemented with 10 mM CaCl2 or 10 mM EDTA plus 2.5 mM EGTA.

[6] = target: T1, Akt1/PKB alpha recombinant enzyme (Homo sapiens, UniProt P31749); assay: In vitro serine/threonine kinase sensor assay with Akt1/PKB; type: biochemical; conditions: 10 ng Akt1/PKB alpha, 30° C., 20 minutes
T1 construct: purchased Upstate Biotechnology
Description: Constructs pBFB335, 336, 338, 339, 340, 417, 418, 419, 422, 22 and 8 were tested in vitro using TNT® T7 Coupled Reticulocyte Lysate System (Promega Corp.). […] Luminescence was measured using a Turner 20/20N luminometer (Turner Biosystems; 1 second integration time). All samples were measured in triplicate. […]
The protocol for other Serine/Threonine kinase sensors is identical to the one above except that for the CPM hRL Luc samples, 5 μL of sample are added to a 96 well plate+5 μL 2× Renilla lysis buffer without detergents (150 mM HEPES, 100 mM Thiourea) and 100 μL Renilla Assay Reagent (Promega Corp.) is added by injectors using a Veritas Microplate Luminometer and luminescence is measured (Turner Biosystems; Bright-Glo program; 3 second integration time). FF Luc samples are measured by adding 100 μL of Luciferase Assay Reagent (LAR; Promega Corp.), to 5 μL of sample in a 96 well plate, by injectors using a Veritas Microplate Luminometer and luminescence measured (Turner Biosystems; Bright-Glo program; 3 second integration time).

[7] = tested on: cyclic AMP dependent protein kinase catalytic subunit; conditions: cited from earlier work

T1 sequence (P31749 whole entry): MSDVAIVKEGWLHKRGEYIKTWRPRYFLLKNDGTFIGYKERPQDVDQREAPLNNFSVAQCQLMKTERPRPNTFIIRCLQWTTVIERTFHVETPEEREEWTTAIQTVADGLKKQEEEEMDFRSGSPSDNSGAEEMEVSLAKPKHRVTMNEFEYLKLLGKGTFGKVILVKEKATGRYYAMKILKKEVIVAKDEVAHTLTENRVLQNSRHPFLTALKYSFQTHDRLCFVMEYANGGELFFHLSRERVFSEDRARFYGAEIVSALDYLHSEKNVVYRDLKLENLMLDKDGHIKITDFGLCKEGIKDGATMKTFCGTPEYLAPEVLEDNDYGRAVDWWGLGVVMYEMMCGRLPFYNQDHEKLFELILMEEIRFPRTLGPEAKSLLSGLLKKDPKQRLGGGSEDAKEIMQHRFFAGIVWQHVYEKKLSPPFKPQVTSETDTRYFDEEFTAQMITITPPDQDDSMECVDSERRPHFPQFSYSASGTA

In the case of `C=C[C@@]1(C)CC(=O)[C@]2(O)[C@@]3(C)[C@@H](O)CCC(C)(C)[C@@H]3[C@H](O)[C@H](OC(C)=O)[C@@]2(C)O1` [forskolin], the “increase in light output from transfected cells” value [1] is reported as “approximately 2 fold”, the “light output above that of untreated cells at maximal levels” value ([2]; CPM-hRL/RIIβB X=4, Y=20 (201325.78.E5)) is reported as 3.6 fold and the EC50 ([2]; Homo sapiens, HEK293, CPM-hRL/RIIβB X=4, Y=20 (201325.78.E5), read-out: EC50 of the forskolin response) is reported as 59 nM. The fold of induction ([3]; 384-well plate, induced with 20 forskolin (so in the source), 15 minutes) was 6.1 fold, the EC50 ([3]; Homo sapiens, 0.25 h, HEK293 stably expressing CP234-Luc/RIIB, 96 well, luminescence at 15 minutes) was 360 nM and the “increase in light output” value ([4]; HEK293 cells stably expressing CPM91-hRL/RIIβB, isopreterenol and forskolin treatment) was “about 5 fold”. For the same compound, the “increase in light output from transfected cells” value ([4]; HEK 293 transiently transfected with CPM-hRL Luc/RIIβB (X=4, Y=20) constructs, 10 μM isopreterenol or 50 μM forskolin alone) was “approximately 2 fold”.

For “pBFB22: wild-type firefly luciferase control”, the “fold reduction in luminescence activity in the presence of calcium” value [5] was “No response” and the “decrease in luminescence plus Akt1/PKB as compared to no Akt1/PKB” value [6] was “did not change”.

In the case of “RRFS: Photinus pyralis luciferase V217R mutant with site RRFS (SEQ ID NO:117), Sala-Newby et al.”, the “decrease in activity on phosphorylation by cyclic AMP dependent protein kinase” value [7] is listed as “up to 80%”.

In the case of LRRASLG, the “decrease in activity on phosphorylation by cyclic AMP dependent protein kinase” value [7] is listed as 30%.
